Read-outs that look alike come from different tables or passages of the source.
How the values were obtained:
human NK2-receptor [1] = target: T1, human NK2-receptor (Homo sapiens, UniProt P21452); test: Binding potency of the test substances to NK2-receptors in vitro ([3H]-SR 48968 displacement); design: expressed in transfected cells; host or cells: CHO cells (membrane preparation); conditions: human NK2-receptor in CHO cell membranes, [3H]-SR 48968 (saredutant), average of at least three measurements; for Ki: read-out: pKi, binding potency to NK2-receptors (converted)
T1 sequence (P21452 1-398): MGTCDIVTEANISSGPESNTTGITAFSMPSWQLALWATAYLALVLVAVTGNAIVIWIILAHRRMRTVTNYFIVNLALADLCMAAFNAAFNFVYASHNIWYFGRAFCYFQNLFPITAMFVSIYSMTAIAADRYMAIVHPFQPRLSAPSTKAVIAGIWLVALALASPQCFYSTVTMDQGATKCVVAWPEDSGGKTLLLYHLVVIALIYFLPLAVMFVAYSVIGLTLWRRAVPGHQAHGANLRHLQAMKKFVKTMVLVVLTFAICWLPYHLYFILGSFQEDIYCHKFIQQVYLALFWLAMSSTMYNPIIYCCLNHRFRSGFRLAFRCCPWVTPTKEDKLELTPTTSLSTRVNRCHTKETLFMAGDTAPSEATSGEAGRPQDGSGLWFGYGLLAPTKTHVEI
Method in brief: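 Membranes from CHO cells stably expressing the receptor were incubated with [3H]-saredutant plus test compound, then filtered and counted by liquid scintillation. Nonspecific binding defined with 0.1 μmol/l unlabeled saredutant. IC50 from displacement converted to Ki via Cheng-Prusoff and reported as pKi, averaged over measurements.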

human NK3 receptor [2] = target: T2, human NK3 receptor (Homo sapiens, UniProt P29371); test: Functional cellular test, Ca2+ measurements using aequorin for NK3 activity; format: cell-based; design: expressed in transfected cells; host or cells: cell line co-expressing mitochondrially targeted apoaequorin (CHO according to b76/b77); conditions: for Kb: read-out: pA2 data for NK3 (converted)
T2 sequence (P29371 1-465): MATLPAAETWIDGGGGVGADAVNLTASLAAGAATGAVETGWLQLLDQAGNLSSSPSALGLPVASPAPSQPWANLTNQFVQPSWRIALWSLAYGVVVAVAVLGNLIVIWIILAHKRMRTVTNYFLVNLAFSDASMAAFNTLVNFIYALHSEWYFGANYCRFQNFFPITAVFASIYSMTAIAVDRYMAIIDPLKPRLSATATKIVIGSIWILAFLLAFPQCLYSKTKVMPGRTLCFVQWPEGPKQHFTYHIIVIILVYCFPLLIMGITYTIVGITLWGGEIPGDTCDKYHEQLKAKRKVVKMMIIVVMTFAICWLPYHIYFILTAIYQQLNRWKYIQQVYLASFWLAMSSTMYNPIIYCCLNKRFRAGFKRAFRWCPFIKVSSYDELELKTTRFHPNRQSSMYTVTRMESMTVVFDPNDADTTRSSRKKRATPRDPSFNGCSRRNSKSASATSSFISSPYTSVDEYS

human NK3 receptor [3] = target: T2, human NK3 receptor; test: Binding potency of the test substances to NK3-receptors in vitro ([3H]-SR 142801 displacement); design: expressed in transfected cells; host or cells: CHO cells (membrane preparation); conditions: human NK3-receptor in CHO cell membranes, [3H]-SR 142801 (osanetant), average of at least three measurements; for Ki: read-out: pKi, binding potency to NK3-receptors (converted)
Method in brief: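 [3H]-osanetant displacement on membranes from CHO cells stably expressing the human receptor, with bound ligand separated by filtration and counted by scintillation. Nonspecific binding defined with 1 μmol/l unlabeled osanetant. IC50 converted to Ki by Cheng-Prusoff and reported as pKi, averaged over measurements.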

human NK1-receptor [4] = target: T3, human NK1-receptor (Homo sapiens, UniProt P25103); test: Functional cellular test, Ca2+ measurements using FLIPR for NK1 activity; format: cell-based; design: expressed in transfected cells; host or cells: CHO fibroblast cells
Description: The NK receptor is coupled to Gq.
All steps were done under sterile conditions.

human NK2-receptor [5] = target: T1, human NK2-receptor; test: Functional cellular test, Ca2+ measurements using FLIPR for NK2 activity;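 note: CHO cells stably expressing the human receptor, loaded with a calcium dye, antagonist inhibition of ligand-evoked intracellular calcium rise read as peak fluorescence change on FLIPR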
human NK1-receptor [6] = target: T3, human NK1-receptor; test: Binding potency of the test substances to NK1-receptors in vitro ([3H]-Substance P displacement); conditions: human NK1-receptor in CHO cell membranes, average of at least three measurements
Procedure: 1. Determination of the Binding Potency of the Test Substances to NK1-Receptors in Vitro
The affinity of test compounds for NK1-receptors can be determined by measuring the ability of the test compound to displace a radiolabeled ligand from its specific binding site. The tests were performed at Solvay Pharmaceuticals, Weesp, The Netherlands.
Separation of bound radioactivity from free radioactivity was done by filtration through glass fiber filters (Packard GF/B) with several washings with ice-cold buffer solution. Bound radioactivity was measured with a liquid scintillation counter (total binding).
The inhibition constant (Ki) was calculated according to the Cheng-Prusoff equation, and listed as its negative logarithmic value (pKi). The pKi value describes the potency of a test compound to bind to a receptor.

NK2-receptor = target: T4, NK2-receptor (Cavia porcellus, UniProt Q64077); test: NK2-receptor-antagonistic effectiveness in vivo, NKA-induced late hypotension, bronchoconstriction and colonic pressure in anaesthetised guinea pigs; conditions: guinea pig, NKA 200 pmol/animal i.v., intravenous administration
T4 construct: from tissue; host or cells: whole animal (Pirbright-White guinea pigs), in vivo
T4 sequence (Q64077 1-402): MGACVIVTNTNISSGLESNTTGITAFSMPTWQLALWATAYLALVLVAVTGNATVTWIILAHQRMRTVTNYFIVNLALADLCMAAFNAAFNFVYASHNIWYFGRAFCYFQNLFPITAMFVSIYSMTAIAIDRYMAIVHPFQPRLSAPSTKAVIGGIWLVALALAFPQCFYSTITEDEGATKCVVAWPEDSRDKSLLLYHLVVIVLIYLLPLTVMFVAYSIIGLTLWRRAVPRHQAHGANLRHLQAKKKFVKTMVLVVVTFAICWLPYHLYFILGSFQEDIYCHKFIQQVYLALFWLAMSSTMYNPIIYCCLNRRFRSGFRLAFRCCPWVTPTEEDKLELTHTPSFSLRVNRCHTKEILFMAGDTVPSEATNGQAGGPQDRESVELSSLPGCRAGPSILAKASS
Description: (§1) 10. Determination of the NK1- and NK2-Receptor-Antagonistic Effectiveness of the Test Substances In Vivo
(§2) The NK1- and NK2-antagonistic activities of the test substances were investigated in anaesthetised guinea pigs in each case after intravenous (=i.v.) and oral (=p.o.) administration in vivo. With the present test model it is possible to detect both NK2-antagonistic effects in three different organ systems (respiratory tracts, colon and circulation) and NK1-antagonistic effects (rapid drop in blood pressure) in an animal simultaneously.
(§3) Pirbright-White guinea pigs of a body weight of 500-700 g were anaesthetised with ketamine/xylazine (67/13 mg/kg subcutaneously, initial dose, further doses administered as required). The animals were provided with an intravenous catheter in order to administer the substance and an intra-arterial catheter to measure the blood pressure. The animals were artificially ventilated via a tracheal cannula and the respiratory pressure was recorded by means of a pressure transducer. A balloon was introduced into the distal colon of the animals for manometric recording of colon motility by means of a pressure transducer. Blood pressure, heart rate, respiratory pressure and colonic pressure were measured continuously for each animal and plotted on a recorder and by means of a digital data-processing system. […] The second phase of delayed hypotension (=phase of maximum hypotension after 2-5 min.) on the other hand is mediated via NK2-receptors, since they can be blocked by specific NK2-receptor antagonists.
(§4) These ED50 values obtained from cumulative dose effect curves are plotted in Table 13.

NK1-receptor = target: T5, NK1-receptor (Cavia porcellus, UniProt P30547); test: NK1-receptor-antagonistic effectiveness in vivo, NKA-induced early hypotension in anaesthetised guinea pigs; conditions: guinea pig, NKA 200 pmol/animal i.v., intravenous administration
T5 construct: from tissue; host or cells: whole animal (Pirbright-White guinea pigs), in vivo
Description: as §1, §2, §3, §4

[7] = read-out: pA2 data for NK1 (converted)
[8] = read-out: pKi, binding potency to NK1-receptors (converted)
[9] = pKi, binding potency to NK1-receptors

T3 sequence (P25103 whole entry): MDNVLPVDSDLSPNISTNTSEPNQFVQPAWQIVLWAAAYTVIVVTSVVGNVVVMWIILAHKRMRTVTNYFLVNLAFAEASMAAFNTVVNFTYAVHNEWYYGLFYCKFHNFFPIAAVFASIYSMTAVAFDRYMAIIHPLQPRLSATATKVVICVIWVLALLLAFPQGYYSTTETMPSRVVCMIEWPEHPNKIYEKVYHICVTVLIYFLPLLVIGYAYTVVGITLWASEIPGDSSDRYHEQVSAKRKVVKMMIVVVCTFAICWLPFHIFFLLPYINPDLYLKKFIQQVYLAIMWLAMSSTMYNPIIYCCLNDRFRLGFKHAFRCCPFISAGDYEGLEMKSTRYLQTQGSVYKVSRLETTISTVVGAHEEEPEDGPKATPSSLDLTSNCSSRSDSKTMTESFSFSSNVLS
T5 sequence (P30547 whole entry): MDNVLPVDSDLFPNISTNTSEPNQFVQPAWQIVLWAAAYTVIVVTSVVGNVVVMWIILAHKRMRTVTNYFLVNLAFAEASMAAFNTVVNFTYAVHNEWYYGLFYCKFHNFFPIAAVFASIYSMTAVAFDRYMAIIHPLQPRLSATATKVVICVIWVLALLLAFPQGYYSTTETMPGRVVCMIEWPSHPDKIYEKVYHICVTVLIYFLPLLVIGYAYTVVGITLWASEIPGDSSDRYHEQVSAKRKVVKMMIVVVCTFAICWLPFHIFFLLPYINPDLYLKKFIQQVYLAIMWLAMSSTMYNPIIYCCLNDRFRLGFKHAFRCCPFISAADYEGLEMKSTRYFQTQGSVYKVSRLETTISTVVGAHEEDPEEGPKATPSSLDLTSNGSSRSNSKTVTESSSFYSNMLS

Row | Ki (human NK2-receptor [1]) [nM] | Kb (human NK3 receptor [2]) [nM] | Ki (human NK3 receptor [3]) [nM] | Kb (human NK1-receptor [4]; [7]) [nM] | Kb (human NK2-receptor [5]) [nM] | Ki (human NK1-receptor [6]; [8]) [nM] | SMILES | also measured
1 | 0.631 | – | 63.1 | 50.1 | 0.251 | – | CN(C)C(=O)C1(N2CCCC2)CCN(CC[C@H](CN(C)C(=O)c2ccccc2)c2ccc(Cl)c(Cl)c2)CC1 [compound 99, 1-[(3S)-4-[benzoyl(methyl)amino]-3-(3,4-dichlorophenyl)-butyl]-N,N-dimethyl-4-pyrrolidin-1-ylpiperidine-4-carboxamide] | –
2 | 5.01 | 39.8 | – | 2 | 39.8 | 2 | CN(C[C@@H](CCN1CCC(C(=O)N2CCCC2)(N2CCCC2)CC1)c1ccc(Cl)c(Cl)c1)C(=O)c1cc(C#N)cc2ccccc12 [compound 102, 3-cyano-N-{(2S)-2-(3,4-dichlorophenyl)-4-[4-pyrrolidin-1-yl-4-(pyrrolidin-1-ylcarbonyl)piperidin-1-yl]butyl}-N-methyl-1-naphthamide] | –
3 | 2 | 50.1 | – | 31.6 | 2 | 50.1 | CN(C[C@@H](CCN1CCC(C(=O)N2CCCC2)(N2CCCC2)CC1)c1ccc(Cl)c(Cl)c1)C(=O)c1ccccc1 [compound 103, N-{(2S)-2-(3,4-dichlorophenyl)-4-[4-pyrrolidin-1-yl-4-(pyrrolidin-1-ylcarbonyl)piperidin-1-yl]butyl}-N-methylbenzamide] | –
4 | 2 | 15.8 | 20 | 20 | 15.8 | – | CN(C[C@@H](CCN1CCC(C(=O)N2CCCCC2)(N2CCCCC2)CC1)c1ccc(Cl)c(Cl)c1)C(=O)c1ccccc1 [compound 104, N-{(2S)-2-(3,4-dichlorophenyl)-4-[4′-(piperidin-1-ylcarbonyl)-1,4′-bipiperidin-1′-yl]butyl}-N-methylbenzamide] | –
5 | 2 | 100 | – | 31.6 | 0.0794 | 25.1 | CCC(=O)N(CC1CC1)C1CCN(CC[C@H](CN(C)C(=O)c2ccccc2)c2ccc(Cl)c(Cl)c2)CC1 [compound 105, N-[(2S)-4-{4-[(cyclopropylmethyl)(Propionyl)-amino]piperidin-1-yl}-2-(3,4-dichlorophenyl)butyl]-N-methylbenzamide] | –

Further lines, the molecule ahead of its results:

Row | SMILES | Ki (human NK2-receptor [1]) [nM] | Kb (human NK3 receptor [2]) [nM] | Ki (human NK3 receptor [3]) [nM] | Kb (human NK1-receptor [4]; [7]) [nM] | Kb (human NK2-receptor [5]) [nM] | Ki (human NK1-receptor [6]; [8]) [nM] | also measured
6 | CN(C)C(=O)C1(N2CCCCC2)CCN(CCC(CN(C)C(=O)c2cc(Cl)ccc2F)c2ccc(Cl)c(Cl)c2)CC1 (stereo not drawn) [compound 10] | 1.26 | 5.01 | 10 | 79.4 | 3.98 | 79.4 | –
7 | CN(C)C(=O)C1(N2CCCCC2)CCN(CC[C@H](CN(C)C(=O)c2ccc(F)c(F)c2F)c2ccc(Cl)c(Cl)c2)CC1 [compound 16] | – | – | – | – | – | – | pKi, binding potency to NK2-receptors (human NK2-receptor [1]): 9.0; pA2 data for NK3 (human NK3 receptor [2]; cell line with human NK3 receptor and apoaequorin, agonist senktide 5x10-8 M): 7.9; ED50 iv after 1 min (cumulative), NK2 (bronchoconstriction) (NK2-receptor): 0.38 µmol/kg; ED50 iv after 1 min (cumulative), NK2 (colonic motility) (NK2-receptor): 0.132 µmol/kg; ED50 iv after 1 min (cumulative), NK2 (late hypotension) (NK2-receptor): 0.34 µmol/kg; pKi, binding potency to NK3-receptors (human NK3 receptor [3]): 7.8; pA2 data for NK2 (human NK2-receptor [5]; CHO cells, human NK2, FLIPR Ca2+, agonist NKA 10^-7 M): 8.3; ED50 iv after 1 min (cumulative), NK1 (early hypotension) (NK1-receptor): >1.462 µmol/kg
8 | CN(C)C(=O)C1(N2CCCCC2)CCN(CCC(CN(C)C(=O)C2CCCC2)c2ccc(Cl)c(Cl)c2)CC1 (stereo not drawn) [compound 23] | 2 | 12.6 | 10 | 1.26 | 1.26 | – | –
9 | CNC(=O)C1(N2CCCCC2)CCN(CCC(CN(C)C(=O)c2cc(C#N)cc3ccccc23)c2ccc(Cl)c(Cl)c2)CC1 (stereo not drawn) [compound 93] | 15.8 | – | – | 7.94 | 3.98 | 7.94 | –
10 | CN(C)C(=O)C1(N2CCCC2)CCN(CCC(CN(C)C(=O)c2cc(C#N)cc3ccccc23)c2ccc(Cl)c(Cl)c2)CC1 (stereo not drawn) [compound 98] | 5.01 | – | 63.1 | 1.58 | 0.501 | 5.01 | –
11 | CCCCN(C(=O)CC)C1CCN(CC[C@H](CN(C)C(=O)c2ccccc2)c2ccc(Cl)c(Cl)c2)CC1 [compound 108, N-[(2S)-4-{4-[butyl(propionyl)amino]piperidin-1-yl}-2-(3,4-dichlorophenyl)butyl]-N-methylbenzamide] | 3.98 | – | – | – | 1 | – | Kb (human NK1-receptor [4]): 31.6 nM; Ki (human NK1-receptor [6]; [9]): 12.6 nM
12 | CCC(=O)N(C1CCCCC1)C1CCN(CC[C@H](CN(C)C(=O)c2ccccc2)c2ccc(Cl)c(Cl)c2)CC1 [compound 116, N-[(2S)-4-{4-[cyclohexyl(propionyl)amino]piperidin-1-yl}-2-(3,4-dichlorophenyl)butyl]-N-methyl-benzamide] | 5.01 | – | – | – | 1.26 | – | Kb (human NK1-receptor [4]): 31.6 nM; Ki (human NK1-receptor [6]; [9]): 79.4 nM

Reference: patent publication US20070219214A1, “Dual NK2/NK3-antagonists, pharmaceutical compositions comprising them, and processes for their preparation” (Solvay pharmaceuticals GmbH, priority 2006, published 2007)
